This note sets out measurements from US20220389061A1, “IMMUNOMODULATORS” (priority 2019, published 2022).

This test concerns the target T1, PD-1/PD-L1 (Homo sapiens, UniProt Q9NZQ7).
T1 construct: TVMV protease site linker (C); made in house; host or cells: HEK293T cells
Nature of the test: PD-1/PD-L1 Homogenous Time-Resolved Fluorescence (HTRF) binding assay. The procedure, abridged: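 Compounds preincubated 15 min with PD-L1-His (10 nM final), then PD-1-Ig (20 nM final) added for 15 min in dPBS with 0.1% BSA, 0.05% Tween-20. Detection by Eu-cryptate anti-Ig (1 nM) and APC anti-His (20 nM) HTRF.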

Where [1] appears, read: PD-L1-His 10 nM pre-incubated with inhibitor, PD-1-Ig 20 nM, read-out: HTRF IC50.

pIC50: −log10 of the molar value. Like-named read-outs stand apart in the source and are kept apart here. Starred links: 1 amine or outer side, 2 acyl side, 3 side chain; linkers in the order of their positions; H or OH if unused. Positions of bridges follow the written chain, without caps; N, C: chain ends. Non-standard residues stand in square brackets, D forms with d. Residues, ends and D or L forms follow the SMILES beside them. Groups on a side chain read outwards from the residue. *: point of attachment. Trp(1-CH2COOH) = N[C@@H](Cc1cn(CC(=O)O)c2ccccc12)C(=O)O; X73 = FC(F)(F)c1cc(NC(=S)*)cc(C(F)(F)F)c1; X88 = Cc1cc([N+](=O)[O-])ccc1NC(=S)*; Hyp = O=C(O)[C@@H]1C[C@@H](O)CN1; X27 = Cc1cc([N+](=O)[O-])ccc1N*; X28 = Cc1ccc(Cl)c(NC(=S)*)c1Cl; X30 = FC(F)(F)c1ccc(N*)c(Cl)c1; NH(3-MeOPh) = COc1cccc(N*)c1; NMeNle = CCCC[C@H](NC)C(=O)O; X90 = Fc1cc(F)c(N*)c(F)c1; NMeA = CN[C@@H](C)C(=O)O; Dab = NCC[C@H](N)C(=O)O; X39 = CCCCOc1ccc(N*)cc1; Dap = NC[C@H](N)C(=O)O; X17 = Cc1cc(C)cc(N*)c1; X46 = COc1ccc(Cl)cc1N*; X15 = Cc1ccc(Cl)cc1N*; X51 = Cc1cccc(Cl)c1N*; CO = O=C([*:1])[*:2]

T1 sequence (Q9NZQ7 18-239): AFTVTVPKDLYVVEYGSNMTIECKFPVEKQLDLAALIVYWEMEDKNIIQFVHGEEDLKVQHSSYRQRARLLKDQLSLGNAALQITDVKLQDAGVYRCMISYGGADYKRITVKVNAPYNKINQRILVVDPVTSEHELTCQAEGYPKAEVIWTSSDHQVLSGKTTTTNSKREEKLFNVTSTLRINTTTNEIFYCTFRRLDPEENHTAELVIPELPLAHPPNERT

Usually pIC50 stands for the IC50 on a negative log10 scale, so that one unit is a factor of ten. As to `CCCC[C@H]1C(=O)N(C)[C@@H](CCCC)C(=O)N[C@@H](CC(C)C)C(=O)N[C@H](C(=O)NCC(N)=O)CSCC(=O)N[C@@H](Cc2ccc(O)cc2)C(=O)N(C)[C@@H](C)C(=O)N[C@@H](CC(N)=O)C(=O)N2CCC[C@H]2C(=O)N[C@@H](CNC(=S)Nc2c(Cl)ccc(C)c2Cl)C(=O)N[C@@H](CC(C)C)C(=O)N2C[C@H](O)C[C@H]2C(=O)N[C@@H](Cc2c[nH]c3ccccc23)C(=O)N[C@@H](CCNC(=S)Nc2c(Cl)ccc(C)c2Cl)C(=O)N[C@@H](Cc2cn(CC(=O)O)c3ccccc23)C(=O)N1C` [Example 1113] ({CH2CO}-Y[NMeA]NP[Dap](X28)L[Hyp]W[Dab](X28)[Trp(1-CH2COOH)][NMeNle][NMeNle]LCG-NH2; thioether N-14), the negative-log IC50 (pIC50) under setting [1] is 8.03.
For the molecule `CCCC[C@H]1C(=O)N(C)[C@@H](CCCC)C(=O)N[C@@H](CC(C)C)C(=O)N[C@H](C(=O)NCC(N)=O)CSCC(=O)N[C@@H](Cc2ccc(O)cc2)C(=O)N(C)[C@@H](C)C(=O)N[C@@H](CC(N)=O)C(=O)N2CCC[C@H]2C(=O)N[C@@H](CNC(=O)Nc2c(F)cc(F)cc2F)C(=O)N[C@@H](CC(C)C)C(=O)N2C[C@H](O)C[C@H]2C(=O)N[C@@H](Cc2c[nH]c3ccccc23)C(=O)N[C@@H](CCNC(=O)Nc2c(C)cccc2Cl)C(=O)N[C@@H](Cc2cn(CC(=O)O)c3ccccc23)C(=O)N1C` [Example 1114] ({CH2CO}-Y[NMeA]NP[Dap]([CO-X90])L[Hyp]W[Dab]([CO-X51])[Trp(1-CH2COOH)][NMeNle][NMeNle]LCG-NH2; thioether N-14), under setting [1], the pIC50 was 8.60.
Still for that read-out and setting: next, `CCCC[C@H]1C(=O)N(C)[C@@H](CCCC)C(=O)N[C@@H](CC(C)C)C(=O)N[C@H](C(=O)NCC(N)=O)CSCC(=O)N[C@@H](Cc2ccc(O)cc2)C(=O)N(C)[C@@H](C)C(=O)N[C@@H](CC(N)=O)C(=O)N2CCC[C@H]2C(=O)N[C@@H](CN)C(=O)N[C@@H](CC(C)C)C(=O)N2C[C@H](O)C[C@H]2C(=O)N[C@@H](Cc2c[nH]c3ccccc23)C(=O)N[C@@H](CCNC(=O)Nc2ccc(C(F)(F)F)cc2Cl)C(=O)N[C@@H](Cc2cn(CC(=O)O)c3ccccc23)C(=O)N1C` [Example 1115] ({CH2CO}-Y[NMeA]NP[Dap]L[Hyp]W[Dab]([CO-X30])[Trp(1-CH2COOH)][NMeNle][NMeNle]LCG-NH2; thioether N-14): 8.00; `CCCC[C@H]1C(=O)N(C)[C@@H](CCCC)C(=O)N[C@@H](CC(C)C)C(=O)N[C@H](C(=O)NCC(N)=O)CSCC(=O)N[C@@H](Cc2ccc(O)cc2)C(=O)N(C)[C@@H](C)C(=O)N[C@@H](CC(N)=O)C(=O)N2CCC[C@H]2C(=O)N[C@@H](CNC(=O)Nc2ccc(C(F)(F)F)cc2Cl)C(=O)N[C@@H](CC(C)C)C(=O)N2C[C@H](O)C[C@H]2C(=O)N[C@@H](Cc2c[nH]c3ccccc23)C(=O)N[C@@H](CCNC(=O)Nc2ccc(C(F)(F)F)cc2Cl)C(=O)N[C@@H](Cc2cn(CC(=O)O)c3ccccc23)C(=O)N1C` [Example 1116] ({CH2CO}-Y[NMeA]NP[Dap]([CO-X30])L[Hyp]W[Dab]([CO-X30])[Trp(1-CH2COOH)][NMeNle][NMeNle]LCG-NH2; thioether N-14): 7.74; `CCCC[C@H]1C(=O)N(C)[C@@H](CCCC)C(=O)N[C@@H](CC(C)C)C(=O)N[C@H](C(=O)NCC(N)=O)CSCC(=O)N[C@@H](Cc2ccc(O)cc2)C(=O)N(C)[C@@H](C)C(=O)N[C@@H](CC(N)=O)C(=O)N2CCC[C@H]2C(=O)N[C@@H](CN)C(=O)N[C@@H](CC(C)C)C(=O)N2C[C@H](O)C[C@H]2C(=O)N[C@@H](Cc2c[nH]c3ccccc23)C(=O)N[C@@H](CCNC(=O)Nc2cc(Cl)ccc2C)C(=O)N[C@@H](Cc2cn(CC(=O)O)c3ccccc23)C(=O)N1C` [Example 1117] ({CH2CO}-Y[NMeA]NP[Dap]L[Hyp]W[Dab]([CO-X15])[Trp(1-CH2COOH)][NMeNle][NMeNle]LCG-NH2; thioether N-14): 8.33.
`CCCC[C@H]1C(=O)N(C)[C@@H](CCCC)C(=O)N[C@@H](CC(C)C)C(=O)N[C@H](C(=O)NCC(N)=O)CSCC(=O)N[C@@H](Cc2ccc(O)cc2)C(=O)N(C)[C@@H](C)C(=O)N[C@@H](CC(N)=O)C(=O)N2CCC[C@H]2C(=O)N[C@@H](CNC(=O)Nc2cc(Cl)ccc2C)C(=O)N[C@@H](CC(C)C)C(=O)N2C[C@H](O)C[C@H]2C(=O)N[C@@H](Cc2c[nH]c3ccccc23)C(=O)N[C@@H](CCNC(=O)Nc2cc(Cl)ccc2C)C(=O)N[C@@H](Cc2cn(CC(=O)O)c3ccccc23)C(=O)N1C` [Example 1118] ({CH2CO}-Y[NMeA]NP[Dap]([CO-X15])L[Hyp]W[Dab]([CO-X15])[Trp(1-CH2COOH)][NMeNle][NMeNle]LCG-NH2; thioether N-14): under setting [1], the pIC50 was 8.37.
Consider `CCCCOc1ccc(NC(=O)NCC[C@@H]2NC(=O)[C@H](Cc3c[nH]c4ccccc34)NC(=O)[C@@H]3C[C@@H](O)CN3C(=O)[C@H](CC(C)C)NC(=O)[C@H](CN)NC(=O)[C@@H]3CCCN3C(=O)[C@H](CC(N)=O)NC(=O)[C@H](C)N(C)C(=O)[C@H](Cc3ccc(O)cc3)NC(=O)CSC[C@@H](C(=O)NCC(N)=O)NC(=O)[C@H](CC(C)C)NC(=O)[C@H](CCCC)N(C)C(=O)[C@H](CCCC)N(C)C(=O)[C@H](Cc3cn(CC(=O)O)c4ccccc34)NC2=O)cc1` [Example 1119] ({CH2CO}-Y[NMeA]NP[Dap]L[Hyp]W[Dab]([CO-X39])[Trp(1-CH2COOH)][NMeNle][NMeNle]LCG-NH2; thioether N-14), for which the pIC50 under setting [1] was 8.47.
As for `CCCCOc1ccc(NC(=O)NCC[C@@H]2NC(=O)[C@H](Cc3c[nH]c4ccccc34)NC(=O)[C@@H]3C[C@@H](O)CN3C(=O)[C@H](CC(C)C)NC(=O)[C@H](CNC(=O)Nc3ccc(OCCCC)cc3)NC(=O)[C@@H]3CCCN3C(=O)[C@H](CC(N)=O)NC(=O)[C@H](C)N(C)C(=O)[C@H](Cc3ccc(O)cc3)NC(=O)CSC[C@@H](C(=O)NCC(N)=O)NC(=O)[C@H](CC(C)C)NC(=O)[C@H](CCCC)N(C)C(=O)[C@H](CCCC)N(C)C(=O)[C@H](Cc3cn(CC(=O)O)c4ccccc34)NC2=O)cc1` [Example 1120] ({CH2CO}-Y[NMeA]NP[Dap]([CO-X39])L[Hyp]W[Dab]([CO-X39])[Trp(1-CH2COOH)][NMeNle][NMeNle]LCG-NH2; thioether N-14), the pIC50 under setting [1] was 8.07.
Take `CCCC[C@H]1C(=O)N(C)[C@@H](CCCC)C(=O)N[C@@H](CC(C)C)C(=O)N[C@H](C(=O)NCC(N)=O)CSCC(=O)N[C@@H](Cc2ccc(O)cc2)C(=O)N(C)[C@@H](C)C(=O)N[C@@H](CC(N)=O)C(=O)N2CCC[C@H]2C(=O)N[C@@H](CNC(=O)Nc2cc(C)cc(C)c2)C(=O)N[C@@H](CC(C)C)C(=O)N2C[C@H](O)C[C@H]2C(=O)N[C@@H](Cc2c[nH]c3ccccc23)C(=O)N[C@@H](CCNC(=O)Nc2cccc(OC)c2)C(=O)N[C@@H](Cc2cn(CC(=O)O)c3ccccc23)C(=O)N1C` [Example 1121] ({CH2CO}-Y[NMeA]NP[Dap]([CO-X17])L[Hyp]W[Dab]([CO-NH(3-MeOPh)])[Trp(1-CH2COOH)][NMeNle][NMeNle]LCG-NH2; thioether N-14): the negative-log IC50 (pIC50) under setting [1] was 7.85.
The molecule `CCCC[C@H]1C(=O)N(C)[C@@H](CCCC)C(=O)N[C@@H](CC(C)C)C(=O)N[C@H](C(=O)NCC(N)=O)CSCC(=O)N[C@@H](Cc2ccc(O)cc2)C(=O)N(C)[C@@H](C)C(=O)N[C@@H](CC(N)=O)C(=O)N2CCC[C@H]2C(=O)N[C@@H](CNC(=O)Nc2ccc([N+](=O)[O-])cc2C)C(=O)N[C@@H](CC(C)C)C(=O)N2C[C@H](O)C[C@H]2C(=O)N[C@@H](Cc2c[nH]c3ccccc23)C(=O)N[C@@H](CCNC(=O)Nc2ccc([N+](=O)[O-])cc2C)C(=O)N[C@@H](Cc2cn(CC(=O)O)c3ccccc23)C(=O)N1C` [Example 1122] ({CH2CO}-Y[NMeA]NP[Dap]([CO-X27])L[Hyp]W[Dab]([CO-X27])[Trp(1-CH2COOH)][NMeNle][NMeNle]LCG-NH2; thioether N-14) had a negative logarithm of the IC50 (pIC50) of 7.85.
As for `CCCC[C@H]1C(=O)N(C)[C@@H](CCCC)C(=O)N[C@@H](CC(C)C)C(=O)N[C@H](C(=O)NCC(N)=O)CSCC(=O)N[C@@H](Cc2ccc(O)cc2)C(=O)N(C)[C@@H](C)C(=O)N[C@@H](CC(N)=O)C(=O)N2CCC[C@H]2C(=O)N[C@@H](CNC(=O)Nc2cc(Cl)ccc2OC)C(=O)N[C@@H](CC(C)C)C(=O)N2C[C@H](O)C[C@H]2C(=O)N[C@@H](Cc2c[nH]c3ccccc23)C(=O)N[C@@H](CCNC(=O)Nc2cc(Cl)ccc2OC)C(=O)N[C@@H](Cc2cn(CC(=O)O)c3ccccc23)C(=O)N1C` [Example 1123] ({CH2CO}-Y[NMeA]NP[Dap]([CO-X46])L[Hyp]W[Dab]([CO-X46])[Trp(1-CH2COOH)][NMeNle][NMeNle]LCG-NH2; thioether N-14), the pIC50 under setting [1] was 8.36.
As to `CCCC[C@H]1C(=O)N(C)[C@@H](CCCC)C(=O)N[C@@H](CC(C)C)C(=O)N[C@H](C(=O)NCC(N)=O)CSCC(=O)N[C@@H](Cc2ccc(O)cc2)C(=O)N(C)[C@@H](C)C(=O)N[C@@H](CC(N)=O)C(=O)N2CCC[C@H]2C(=O)N[C@@H](CNC(=S)Nc2cc(C(F)(F)F)cc(C(F)(F)F)c2)C(=O)N[C@@H](CC(C)C)C(=O)N2C[C@H](O)C[C@H]2C(=O)N[C@@H](Cc2c[nH]c3ccccc23)C(=O)N[C@@H](CCNC(=S)Nc2cc(C(F)(F)F)cc(C(F)(F)F)c2)C(=O)N[C@@H](Cc2cn(CC(=O)O)c3ccccc23)C(=O)N1C` [Example 1124] ({CH2CO}-Y[NMeA]NP[Dap](X73)L[Hyp]W[Dab](X73)[Trp(1-CH2COOH)][NMeNle][NMeNle]LCG-NH2; thioether N-14), the pIC50 under setting [1] was 7.06.
The molecule `CCCC[C@H]1C(=O)N(C)[C@@H](CCCC)C(=O)N[C@@H](CC(C)C)C(=O)N[C@H](C(=O)NCC(N)=O)CSCC(=O)N[C@@H](Cc2ccc(O)cc2)C(=O)N(C)[C@@H](C)C(=O)N[C@@H](CC(N)=O)C(=O)N2CCC[C@H]2C(=O)N[C@@H](CNC(=S)Nc2ccc([N+](=O)[O-])cc2C)C(=O)N[C@@H](CC(C)C)C(=O)N2C[C@H](O)C[C@H]2C(=O)N[C@@H](Cc2c[nH]c3ccccc23)C(=O)N[C@@H](CCNC(=S)Nc2ccc([N+](=O)[O-])cc2C)C(=O)N[C@@H](Cc2cn(CC(=O)O)c3ccccc23)C(=O)N1C` [Example 1125] ({CH2CO}-Y[NMeA]NP[Dap](X88)L[Hyp]W[Dab](X88)[Trp(1-CH2COOH)][NMeNle][NMeNle]LCG-NH2; thioether N-14) had a pIC50 of 8.17.
